# Results: patent publication US11639350B2, “Heteroaryldihydropyrimidine derivatives and methods of treating hepatitis B infections” (Janssen Pharmaceutica NV, priority 2018, dated 2023)
# Like-named read-outs stand apart in the source and are kept apart here.
# How the values were obtained:
# HepG2.2.15 cells = experiment: Cytotoxicity determination in HepG2.2.15 cells (CCK-8); format: cell-based; conditions: 6 days of compound treatment, CCK-8, highest concentration 100 μM
# How it was run: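 HepG2.2.15 cells seeded at 5,000 cells/well in 2% FBS medium, incubated overnight at 37° C., then treated 6 days with compounds (8 points, 3-fold dilutions, top 100 μM), medium refreshed once midway. CCK-8 added for 2.5 h; A450 read against 630 nm reference; CC50 calculated, averaged over repeats.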
# HBV = HBV inhibitory activity: HBV DNA in the culture medium of HepG2.2.15 cells by q-PCR; format: cell-based; conditions: HepG2.2.15 cells, 6 days of compound treatment, HBV DNA in culture medium by q-PCR, highest concentration 10 μM, read-out: EC50
# How it was run: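 HepG2.2.15 cells in 2% FBS medium, 40,000 per well, treated 6 days with compound (medium refreshed once), eight 3-fold dilutions from 10 μM top. HBV DNA extracted from culture medium and quantified by q-PCR; EC50 averaged over repeats. Cytotoxicity run in parallel at 5,000 cells per well, top 100 μM, giving CC50.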
Structure (SMILES),CC50 (HepG2.2.15 cells),EC50 (HBV),"EC50 (HBV; Hepatitis B virus, HepG2.2.15, 144 h)"
"COC(=O)C1=C(C2CCCOC2)NC(c2nccs2)=NC1c1ccc(F)cc1Cl (single isomer, unassigned) [Compound 48A, Methyl 4-(2-chloro-4-fluorophenyl)-6-(tetrahydro-2H-pyran-3-yl)-2-(thiazol-2-yl)-1,4-dihydropyrimidine-5-carboxylate]",46900 nM,565 nM,
"COC(=O)C1=C(C2CCCOC2)NC(c2nccs2)=NC1c1ccc(F)cc1Cl (single isomer, unassigned) [Compound 48D, Methyl 4-(2-chloro-4-fluorophenyl)-6-(tetrahydro-2H-pyran-3-yl)-2-(thiazol-2-yl)-1,4-dihydropyrimidine-5-carboxylate]",> 100000 nM,210 nM,
"COC(=O)C1=C(C2CCC(NS(C)(=O)=O)C2)NC(c2nccs2)=NC1c1cccc(F)c1Cl (single isomer, unassigned) [Compound 61B, Methyl 4-(2-chloro-3-fluorophenyl)-6-(3-(methylsulfonamido)-cyclopentyl)-2-(thiazol-2-yl)-1,4-dihydropyrimidine-5-carboxylate]",> 20000 nM,333 nM,
"COC(=O)C1=C(C2CCC(NS(C)(=O)=O)C2)NC(c2nccs2)=NC1c1cccc(F)c1Cl (single isomer, unassigned) [Compound 61D, Methyl 4-(2-chloro-3-fluorophenyl)-6-(3-(methylsulfonamido)-cyclopentyl)-2-(thiazol-2-yl)-1,4-dihydropyrimidine-5-carboxylate]",33400 nM,35 nM,
"COC(=O)C1=C(C2CCC(NS(C)(=O)=O)C2)NC(c2nccs2)=NC1c1cccc(F)c1Cl (single isomer, unassigned) [Compound 61E, Methyl 4-(2-chloro-3-fluorophenyl)-6-(3-(methylsulfonamido)cyclopentyl)-2-(thiazol-2-yl)-1,4-dihydropyrimidine-5-carboxylate]",21700 nM,358 nM,
"COC(=O)C1=C(C2CCC(NS(C)(=O)=O)C2)NC(c2nccs2)=NC1c1cccc(F)c1Cl (single isomer, unassigned) [Compound 61G, Methyl 4-(2-chloro-3-fluorophenyl)-6-(3-(methylsulfonamido)-cyclopentyl)-2-(thiazol-2-yl)-1,4-dihydropyrimidine-5-carboxylate]",> 10000 nM,423 nM,
"COC(=O)C1=C(C2CCC(NC(C)=O)C2)NC(c2nccs2)=NC1c1cccc(F)c1Cl (single isomer, unassigned) [Compound 62B, Methyl 6-(3-acetamidocyclopentyl)-4-(2-chloro-3-fluorophenyl)-2-(thiazol-2-yl)-1,4-dihydropyrimidine-5-carboxylate]",22900 nM,63 nM,
"COC(=O)C1=C(C2CCC(NC(C)=O)C2)NC(c2nccs2)=NC1c1cccc(F)c1Cl (single isomer, unassigned) [Compound 62D, Methyl 6-(3-acetamidocyclopentyl)-4-(2-chloro-3-fluorophenyl)-2-(thiazol-2-yl)-1,4-dihydropyrimidine-5-carboxylate]",75100 nM,892 nM,
"COC(=O)C1=C(C2CCC(NC(C)=O)C2)NC(c2nccs2)=NC1c1cccc(F)c1Cl (single isomer, unassigned) [Compound 62G, Methyl 6-(3-acetamidocyclopentyl)-4-(2-chloro-3-fluorophenyl)-2-(thiazol-2-yl)-1,4-dihydropyrimidine-5-carboxylate]",37100 nM,119 nM,
"COC(=O)C1=C(C2CCN(S(C)(=O)=O)C2)NC(c2nccs2)=NC1c1ccc(F)cc1Cl (single isomer, unassigned) [Compound 65A, 4-(2-Chloro-4-fluoro-phenyl)-6-(1-methanesulfonyl-pyrrolidin-3-yl)-2-thiazol-2-yl-1,4-dihydro-pyrimidine-5-carboxylic Acid Methyl Ester]",69100 nM,,425 nM
"COC(=O)C1=C(C2CCN(S(C)(=O)=O)C2)NC(c2nccs2)=NC1c1ccc(F)cc1Cl (single isomer, unassigned) [Compound 65C, 4-(2-Chloro-4-fluoro-phenyl)-6-(1-methanesulfonyl-pyrrolidin-3-yl)-2-thiazol-2-yl-1,4-dihydro-pyrimidine-5-carboxylic Acid Methyl Ester]",19500 nM,378 nM,
"COC(=O)C1=C(C2CCC(C(=O)O)C2)NC(c2nccs2)=NC1c1ccc(F)cc1Cl (single isomer, unassigned) [Compound 72F, 3-(6-(2-Chloro-4-fluorophenyl)-5-(methoxycarbonyl)-2-(thiazol-2-yl)-3,6-dihydropyrimidin-4-yl)cyclopentanecarboxylic Acid]",30000 nM,58 nM,
"COC(=O)C1=C(C2CCOC2)NC(c2nccs2)=NC1c1cccc(F)c1Cl (single isomer, unassigned) [Compound 74A, Methyl 4-(2-chloro-3-fluorophenyl)-6-(tetrahydrofuran-3-yl)-2-(thiazol-2-yl)-1,4-dihydropyrimidine-5-carboxylate]",33000 nM,88 nM,
"COC(=O)C1=C(C2CCOC2)NC(c2nccs2)=NC1c1cccc(F)c1Cl (single isomer, unassigned) [Compound 74C, Methyl 4-(2-chloro-3-fluorophenyl)-6-(tetrahydrofuran-3-yl)-2-(thiazol-2-yl)-1,4-dihydropyrimidine-5-carboxylate]",86500 nM,249 nM,
"COC(=O)C1=C(C2CCOC2)NC(c2nccs2)=NC1c1cccc(F)c1Cl (single isomer, unassigned) [Compound 74D, Methyl 4-(2-chloro-3-fluorophenyl)-6-(tetrahydrofuran-3-yl)-2-(thiazol-2-yl)-1,4-dihydropyrimidine-5-carboxylate]",84500 nM,303 nM,
"COC(=O)C1=C(C2CCC(=O)N2)NC(c2nccs2)=NC1c1cccc(F)c1Cl (single isomer, unassigned) [Compound 75A, Methyl 4-(2-chloro-3-fluorophenyl)-6-(5-oxopyrrolidin-2-yl)-2-(thiazol-2-yl)-1,4-dihydropyrimidine-5-carboxylate]",32300 nM,213 nM,
"COC(=O)C1=C(C2CCC(=O)N2)NC(c2nccs2)=NC1c1cccc(F)c1Cl (single isomer, unassigned) [Compound 75D, Methyl 4-(2-chloro-3-fluorophenyl)-6-(5-oxopyrrolidin-2-yl)-2-(thiazol-2-yl)-1,4-dihydropyrimidine-5-carboxylate]",10200 nM,45 nM,
"CCOC(=O)C1=C([C@@H]2C[C@H]2CC(=O)O)NC(c2nccs2)=NC1c1ccc(F)cc1Cl (single isomer, unassigned) [Compound 93, 2-(trans-2-(6-(2-Chloro-4-fluorophenyl)-5-(ethoxycarbonyl)-2-(thiazol-2-yl)-3,6-dihydropyrimidin-4-yl)cyclopropyl)acetic Acid]",92500 nM,507 nM,
"COC(=O)C1=C(C2CCCC(C(=O)O)CC2)NC(c2nccs2)=NC1c1ccc(F)cc1Cl (single isomer, unassigned) [Compound 95C, 4-(6-(2-Chloro-4-fluorophenyl)-5-(methoxycarbonyl)-2-(thiazol-2-yl)-3,6-dihydropyrimidin-4-yl)cycloheptanecarboxylic Acid]",33100 nM,117 nM,
